{"source": "patent US12702654B2", "about": "“Compositions and methods for treating homocystinuria and other conditions using polyamines” (THE REGENTS OF THE UNIVERSITY OF COLORADO, priority 2020, dated 2026)", "key": {"[1]": {"tested_on": "MTHFR", "assay": "Western blotting of hepatic MTHFR expression", "assay_type": "in vivo, mouse", "settings": "HO mice, 30 g/l in drinking water ad libitum, one week", "procedure": "(§1) To investigate the effects of these treatments upon the hepatic regulatory changes in enzyme expression induced by HCU, the human transgenic HO mouse model of HCU was used. In brief, experimental groups consisting of 8 HO mice on a C57BL/6J background and 8 C57BL/6J WT littermate control mice bred in house were used. Mice in both groups were male and aged between 3 and 4 months. Except where otherwise stated, all mice were maintained on standard chow. All diets were administered using a paired-feeding design to ensure isocaloric intake between all experimental groups and body weights were measured once per week. There was no significant difference in body weight between mice in any of the experimental groups. Betaine and taurine were in this example, both administered by dissolving these compounds in drinking water at 30 g/l (2% or 3% w/v) and were supplied ad libitum for one week. Treatment water was replenished twice per week.\nWestern blotting analysis of SAHH, MTHFR and SHMT2 expression was performed in liver samples from HO mice in the presence and absence of betaine or taurine treatment."}, "[2]": {"tested_on": "HO HCU mice", "assay": "Hepatic metabolomic analysis / hepatic 5-methylTHF in HO HCU mice", "assay_type": "in vivo, mouse", "source_text": "As illustrated in one example, see FIG. 2, HCU (HO) induced a significant accumulation of hepatic 5-methyl-THF which by sequestering one carbon units had the potential to decrease the available pool of THF available to the betaine pathway for lowering Hcy. FIG. 2 illustrates an example of hepatic metabolomic analysis of HO and WT controls compared to an HO mouse treated with betaine. Comparative hepatic metabolomic analysis of HO mice and WT controls illustrated about a 10-fold accumulation in the MTHFR product 5-MeTHF. Betaine treatment alone reduced 5-MeTHF by about 15-25%. Data illustrated in FIG. 2 was derived from the livers of 8 (4 male, 4 female) individual HO or WT or HO Betaine mice per group. Betaine was given at 2% w/v in drinking water given ad libitum. P<0.0001 vs WT.\n(§2) A comparative reference data set was generated for these mice by examining plasma levels of tHcy, methionine, cysteine, serine, glycine, dimethylglycine, methylglycine (MG, SAM and SAH). In brief, determination of plasma levels of amino acids relevant to the methionine cycle were determined using methods similar to those described in Stabler et al., Blood. 81 (1993) 3404-3413, incorporated in its entirety herein. Determination of hepatic 5-methylTHF was performed by liquid chromatography-tandem mass spectrometry using methods similar to those described in Witham et al., PLoS One. 8 (2013) e77923, incorporated in its entirety herein. The global metabolomic analysis of methionine and folate cycle related metabolites was carried out by Metabolon, Inc. Briefly, sample preparation was performed utilizing the automated MicroLab STAR® system. Sample preparation was performed using a proprietary series of organic and aqueous extractions to remove the protein fraction while allowing maximum recovery of small molecules. The resulting extract was divided into two fractions: one for analysis by liquid chromatography and one for analysis by gas chromatography. Each sample was then frozen and dried under vacuum. The LC/mass spectrometer portion of the platform was based on a Waters ACQUITY UPLC and a Thermo-Finnigan LTQ mass spectrometer, which consisted of an electrospray ionization source and linear ion-trap mass analyzer. Samples were analyzed on a Thermo-Finnigan Trace DSQ fast-scanning single-quadrupole mass spectrometer using electron impact ionization. Identification of known chemical entities was based on comparison to library entries of authenticated standards. Tissue polyamines putrescine, spermidine and spermine and 5-methylthioadenosine (MTA) were determined by liquid chromatography-tandem mass spectrometry using methods similar to those described in Stevens et al., J Chromatogr A 1217 (2010) 3282-3288, incorporated in its entirety herein."}, "[3]": {"tested_on": "HO HCU mice", "assay": "Hepatic polyamines and MTA by LC-tandem MS in HO HCU mice", "assay_type": "in vivo, mouse", "procedure": "as §2, with “Determination of hepatic 5-methylTHF was performed by liquid chromatography-tandem mass spectrometry using methods similar to those described in Witham et al., PLoS One. 8 (2013) e77923, incorporated in its entirety herein.” left out"}, "[4]": {"tested_on": "pro-inflammatory cytokines (TNF-α, IL-1β)", "assay": "Pro-inflammatory cytokine expression in HO HCU mice", "assay_type": "in vivo, mouse"}, "[5]": {"tested_on": "ApoA-1", "assay": "ApoA-1 expression in HO model", "assay_type": "in vivo, mouse", "settings": "one-week treatment protocol", "procedure": "(§3) In another exemplary method, the transsulfuration pathway and methionine-folate cycle pathways, as show in the sematic illustrated in FIG. 18A, were assessed. In brief, three experimental groups (n=8 for each group) of male mice consisting of either untreated WT controls or HO HCU mice in the presence or absence of betaine treatment. Betaine was administered by dissolving the compound in drinking water at 30 g/l and was supplied ad libitum to the mice for one week. Treatment water was replenished twice per week."}, "[6]": {"tested_on": "Cbs null mouse", "settings": "betaine treatment; cited from earlier work"}, "[7]": {"settings": "mouse, in vivo", "procedure": "as §3\nas §1, with “Betaine and taurine were in this example, both administered by dissolving these compounds in drinking water at 30 g/l (2% or 3% w/v) and were supplied ad libitum for one week. Treatment water was replenished twice per week.” left out"}, "[8]": {"tested_on": "HO HCU mice", "assay": "Plasma metabolite levels (tHcy, methionine cycle amino acids, SAM, SAH) in HO HCU mice", "assay_type": "in vivo, mouse", "settings": "long-term betaine treatment, no methionine-restriction"}, "[9]": {"settings": "HO HCU mice, one week of betaine treatment"}, "[10]": {"settings": "HO HCU mice, prolonged betaine treatment"}}, "note": "Entries after “also recorded” stand apart in the source; their conditions may differ.", "data": [{"smiles": "C[N+](C)(C)CC(=O)O", "note": "[betaine, N,N,N-trimethylglycine]", "values": [{"measurement": "HCU-mediated induction of hepatic MTHFR expression", "setting": "[1]", "result": "completely reversed"}, {"measurement": "HCU-induced decrease in hepatic N-acetylcysteine", "setting": "[2]; [9]", "result": "reversed"}, {"measurement": "HCU-induced decrease in hepatic cysteine", "setting": "[2]; [9]", "result": "reversed"}, {"measurement": "hepatic N-acetylserine", "setting": "[2]; [9]", "result": "Neither of these metabolites were significantly altered"}, {"measurement": "hepatic SAH", "setting": "[2]; [9]", "result": "did not change significantly"}, {"measurement": "hepatic SAM", "setting": "[2]; [9]", "result": "did not change significantly"}, {"measurement": "hepatic methionine compared to untreated HO mice", "setting": "[2]; [9]", "result": "no detectable effect"}, {"measurement": "hepatic serine", "setting": "[2]; [9]", "result": "Neither of these metabolites were significantly altered"}, {"measurement": "increase of hepatic DMG", "setting": "[2]; [9]", "result": "3 to 4", "unit": "fold"}, {"measurement": "increase of hepatic MG", "setting": "[2]; [9]", "result": "3 to 4", "unit": "fold"}, {"measurement": "lowering of hepatic N-acetlymethionine compared to untreated HO HCU mice", "setting": "[2]; [9]", "result": 23, "unit": "%"}, {"measurement": "lowering of hepatic tHcy", "setting": "[2]; [9]", "result": "approximately 20%"}, {"measurement": "reduction of hepatic 5-MeTHF", "setting": "[2]; HO mice, betaine 2% w/v in drinking water ad libitum", "result": "15-25%"}, {"measurement": "hepatic levels of putrescine", "setting": "[3]; HO HCU mice ± betaine vs WT, n=8 per group, data not shown", "result": "no statistical difference"}, {"measurement": "hepatic spermidine", "setting": "[3]; [9]", "result": "normalized relative to WT mice"}, {"measurement": "hepatic spermine", "setting": "[3]; [9]", "result": "normalized relative to WT mice"}, {"measurement": "hepatic MTA levels compared to untreated HO HCU mice", "setting": "[3]; HO HCU mice, one week of betaine treatment, p<0.001", "result": "approximate doubling"}, {"measurement": "plasma levels of IL-1β", "setting": "[4]; [10]", "result": "significant increase"}, {"measurement": "plasma levels of TNF-α", "setting": "[4]; [10]", "result": "significant increase"}, {"measurement": "pro-inflammatory cytokine expression", "setting": "[4]; HO model, one week of betaine treatment", "result": "virtual ablation of most of the pro-inflammatory cytokine expression; also recorded: decrease pro-inflammatory cytokine expression"}, {"measurement": "ApoA-1 expression", "setting": "[5]", "result": "increase ApoA-1 expression"}, {"measurement": "Hcy in Cbs (−/−) mice", "setting": "[6]", "result": "without significantly lowering Hcy"}, {"measurement": "fertility of female Cbs (−/−) mice", "setting": "[6]", "result": "restored fertility"}, {"measurement": "severe liver injury, steatosis, and fibrosis in Cbs (−/−) mice", "setting": "[6]", "result": "not significantly improved"}, {"measurement": "survival of Cbs (−/−) mice", "setting": "[6]", "result": "improved survival"}, {"measurement": "tolerability of doses", "setting": "[7]", "result": "well tolerated"}, {"measurement": "ability of betaine treatment to lower homocysteine", "setting": "[8]", "result": "diminished significantly over time"}]}]}
